# Patent US20100168112A1, “2-Substituted and 4-substituted aryl nitrone compounds” (RENOVIS, INC., priority 2004, published 2010)
# Test system: 1K1C rats
# Assay: Kidney ischemia-reperfusion injury, one-kidney one-clip (1K1C) model, fractional excretion of sodium
# Type: in vivo
# Method: Rats were individually housed in a modified cage that was equipped with a raised mesh bottom to separate the fecal product from urine. Before the test, all animals were withheld from food and water overnight. In the morning of the test, normal saline (i.e., 0.9% sodium chloride) was given via oral gavage at […] (Lipschitz, W. L. Hadidian, Z. & Kerpcar, A.: Bioassay of diuretics., J. Pharmacol. Exp. Ther., 79: 97-110, 1943). Samples of blood and urine were collected (standard procedures) at time points (1 and/or 5 hrs after fluid intake) from animals, centrifuged, and kept at 4 degrees until analysis for factors that reflect renal functions. Sodium and creatinine levels were determined by Quality Clinical Labs, Inc. (Mountain View, Calif.). Sodium concentrations were determined by ion selective electrode (standard procedures). Creatinine levels were determined by the alkaline picrated (Jaffe) reaction as described (Liobat-Estelles, M., Sevillano-Cabeja, A. & Campines-Falco, P.: Kinetic chemometric studies of the determination of creatinine using the Jaffe reaction. Part I: kinetics of the reaction; analytical conclusion. Analyst, 11: 597-602, 1989). Fractional excretion of sodium (FENa+), a parameter for ion-handling by the kidney, was calculated, using the following equation: =UNa×Pcr/PNa×Ucr, where UNa is the concentration of sodium in urine; Pcr is the plasma concentration of creatinine; PNa is the […]; and Ucr is the concentration of creatinine in the urine.
# After the data for the calculation of basal levels of FENa+ was obtained (Table 16), rats were anesthetized with pentobarbital (65 mg/kg, i.p.). The abdominal region was shaved with a safety razor and sterilized with povidone iodine solution. A midline incision was made and the right kidney was exposed. The right renal pedicle and right urether were both ligated twice with 4-0 sutures and cut between the ligations. The right kidney was then removed. 7 days later, these rats, after another overnight food-water deprivation, were randomly assigned into 3 groups and orally given either Compound 62 (50 mg/kg, at the volume of 1 ml/kg,p.o.) or its vehicle (i.e., 96% of 0.5% CMC and 4 of 20% Tween 80, at the volume of 1 ml/kg, p.o.) 1 hr before kidney ischemia was produced. Positive controls were performed using quercetin (30 mg/kg, i.p.) given 2 hrs before ischemia (Kahraman, A., Erkasap, N., Serteser, M. & Koken, T.: Protective effect of quercetin on renal ischemia/reperfusion injury in rats. J. Nephrol., 16: 219-224, 2003). Animals were then anesthetized and had their left kidneys exposed after opening of their abdominal cavities. A non-traumatic vascular clamp was applied to the left renal pedicle (the ischemia phase), which was released 45 min later (the reperfusion phase). Lipschitz test was then conducted to measure ion-handling capabilities. Normal saline was orally administered at […] as soon as the vascular clamp was released. 60- and 300-min after reperfusion, plasma and urine samples were obtained.
# [1] = 1K1C rats, Compound 62 50 mg/kg p.o. 1 hr before ischemia, quercetin 30 mg/kg i.p. 2 hrs before, 45 min ischemia, mean ± SEM
structure (smiles),measurement,setting,value
"CC(C)(C)/[N+]([O-])=C/c1ccc(S(C)(=O)=O)cc1 [Compound 62, N-tert-Butyl-C-[4-(methanesulfonyl)phenyl]nitrone]",effect on FENa+ compared with the vehicle treatment group (in words),"1K1C rats, 50 mg/kg p.o., acutely dosed",significantly enhanced FENa+ 5-hr after reperfusion
same,1-hr post-ischemic FENa+ (%),[1],0.52 ± 0.29%
same,5-hr post-ischemic FENa+ (%),[1],2.52 ± 0.5%
same,FENa+ (%) pre-surgery (basal) levels,"rats before 1K1C modeling, group baseline, mean ± SEM",1.71 ± 0.36%
